Drawing on ChEMBL document CHEMBL1833960, “Identification of 5,6-substituted 4-aminothieno[2,3-d]pyrimidines as LIMK1 inhibitors” (Bioorg Med Chem Lett, 2011), this text covers IC50 for 46 compounds.

The target in assay [1] is T1, LIM domain kinase 1 (Homo sapiens, UniProt P53667). In words: Inhibition of LIMK1 using cofilin-2 as substrate after 60 mins by Kinase-Glo assay.
Assay [2] deals with T1, LIM domain kinase 1. In words: Inhibition of LIMK1 using cofilin-2 as substrate after 60 mins by TR-FRET assay. A general note: TR-FRET usually uses a lanthanide donor and a delayed reading to cut background.

T1 sequence (P53667 whole entry, the tested form may be a part): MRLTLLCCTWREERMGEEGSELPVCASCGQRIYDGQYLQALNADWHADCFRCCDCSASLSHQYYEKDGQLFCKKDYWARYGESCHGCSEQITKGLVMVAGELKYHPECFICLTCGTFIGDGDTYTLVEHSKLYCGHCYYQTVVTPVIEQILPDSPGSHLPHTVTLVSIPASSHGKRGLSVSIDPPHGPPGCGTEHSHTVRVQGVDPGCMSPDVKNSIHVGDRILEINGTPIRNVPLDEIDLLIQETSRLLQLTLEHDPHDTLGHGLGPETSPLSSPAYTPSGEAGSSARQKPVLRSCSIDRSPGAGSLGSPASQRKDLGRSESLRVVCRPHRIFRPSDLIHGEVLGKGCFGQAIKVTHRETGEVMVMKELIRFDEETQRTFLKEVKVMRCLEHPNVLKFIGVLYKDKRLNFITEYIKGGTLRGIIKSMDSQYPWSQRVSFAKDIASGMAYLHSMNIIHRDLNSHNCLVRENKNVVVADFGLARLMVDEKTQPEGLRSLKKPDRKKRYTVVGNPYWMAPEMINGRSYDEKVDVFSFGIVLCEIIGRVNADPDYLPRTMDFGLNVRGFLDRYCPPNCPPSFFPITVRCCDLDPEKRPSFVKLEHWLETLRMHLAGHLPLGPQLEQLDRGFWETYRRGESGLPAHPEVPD

The IC50 is the midpoint of a concentration-inhibition curve. Lower therefore signals higher potency. On to `Cn1c2cc(-c3ccccc3)ccc2c2ncnc(N)c21`, for which, on LIM domain kinase 1 [1], the IC50 worked out at 0.26 µM. On the same count and under the same terms, for `Nc1ncnc2c1sc1cc(-c3ccccc3)ccc12` the value was 0.3 µM. Turning to `COc1ccc(-c2sc3ncnc(N)c3c2C)cc1OC`, the concentration for half-maximal inhibition (IC50) at LIM domain kinase 1 [2] and against LIM domain kinase 1 [1] was 3.2 µM each time. For `Cc1nc(N)c2c3c(sc2n1)CCCC3`, the IC50 against LIM domain kinase 1 [2] and at LIM domain kinase 1 [1] was over 100 µM throughout. Turning to `Nc1ncnc2sc3c(c12)CCOC3`, the IC50 at LIM domain kinase 1 [2] and against LIM domain kinase 1 [1] was 3.5 µM each time. For `Nc1ncnc2sc3c(c12)CCc1ccccc1-3`, the IC50 at LIM domain kinase 1 [2] and on LIM domain kinase 1 [1] was 4.3 µM throughout. Regarding `c1ccc(CCNc2ncnc3sc4c(c23)CCCC4)cc1`, the IC50 against LIM domain kinase 1 [2] and at LIM domain kinase 1 [1] was over 100 µM throughout. In the case of `Nc1ncnc2sc3c(c12)CCN(Cc1ccccc1)C3`, the IC50 against LIM domain kinase 1 [2] and against LIM domain kinase 1 [1] was 0.66 µM throughout.

With `CC1CCCc2sc3ncnc(N)c3c21` (stereo not given), the IC50 on LIM domain kinase 1 [2] and on LIM domain kinase 1 [1] was 2.7 µM throughout. `Nc1ncnc2sc3c(c12)CCC(C(=O)N1CCOCC1)C3` (stereo not given): the IC50 at LIM domain kinase 1 [2] and on LIM domain kinase 1 [1] was 9.5 µM throughout. `Nc1ncnc2c1sc1ncccc12` gave an IC50 against LIM domain kinase 1 [1] of 9 µM. Turning to `CSc1nc(N)c2c3c(sc2n1)CCCCC3`, the IC50 against LIM domain kinase 1 [2] and against LIM domain kinase 1 [1] was over 100 µM in each case. For the compound `NC(=O)C1CCc2c(sc3ncnc(N)c23)C1` (stereo not given), the IC50 on LIM domain kinase 1 [2] and on LIM domain kinase 1 [1] was 9.1 µM each time.

Take `Nc1nc(=S)[nH]c2sc3c(c12)CCCC3`: the IC50 at LIM domain kinase 1 [2] and against LIM domain kinase 1 [1] was over 100 µM in each case. In the case of `Nc1nc(SCC(=O)O)nc2sc3c(c12)CCCC3`, the half-inhibitory concentration (IC50) on LIM domain kinase 1 [2] and on LIM domain kinase 1 [1] was over 100 µM each time. In the case of `CN(C)c1ncnc2sc3c(c12)CCCC3`, the IC50 on LIM domain kinase 1 [2] and at LIM domain kinase 1 [1] was over 100 µM each time. On to `Cc1c(-c2ccccc2)sc2ncnc(N)c12`, for which the IC50 against LIM domain kinase 1 [2] and against LIM domain kinase 1 [1] was 17 µM in each case. Take `Nc1ncnc2sc3c(c12)CC1CC3C1`: the IC50 on LIM domain kinase 1 [2] and against LIM domain kinase 1 [1] was 1.8 µM throughout. Take `Cc1sc2ncnc(N)c2c1C`: the IC50 at LIM domain kinase 1 [2] and at LIM domain kinase 1 [1] was 4.4 µM in each case.

For the compound `Nc1nc(-c2cccs2)nc2sc3c(c12)CCCC3`, the IC50 against LIM domain kinase 1 [2] and on LIM domain kinase 1 [1] was over 100 µM each time.

With `Nc1ncnc2sc3c(c12)CCCCC3`, the IC50 at LIM domain kinase 1 [2] and at LIM domain kinase 1 [1] was 2.5 µM in each case.

As for `COc1ccc(Nc2ncnc3sc4c(c23)CCCC4)cc1`, the half-inhibitory concentration (IC50) on LIM domain kinase 1 [2] and against LIM domain kinase 1 [1] was over 100 µM each time. As to `CSc1nc(N)c2c3c(sc2n1)CCCC3`, the IC50 on LIM domain kinase 1 [2] and at LIM domain kinase 1 [1] was over 100 µM in each case. Consider `Nc1ncnc2sc3c(c12)Cc1ccccc1-3`, for which the IC50 at LIM domain kinase 1 [2] and against LIM domain kinase 1 [1] was 11 µM each time. In the case of `Nc1ncnc2sc3c(c12)CCC(c1ccccc1)C3` (stereo not given), the IC50 against LIM domain kinase 1 [2] and on LIM domain kinase 1 [1] was over 20 µM in each case. Take `Nc1nc(S)nc2sc3c(c12)CCCCC3`: the IC50 on LIM domain kinase 1 [2] and against LIM domain kinase 1 [1] was over 100 µM in each case. Turning to `CC1(C)CCc2sc3ncnc(N)c3c21`, the IC50 at LIM domain kinase 1 [2] and on LIM domain kinase 1 [1] was 2.1 µM in each case.

On to `Nc1ncnc2sc3c(c12)CCC(C(=O)NCc1ccccc1)C3` (stereo not given), for which the IC50 at LIM domain kinase 1 [2] and against LIM domain kinase 1 [1] was 8.6 µM in each case. Regarding `CC1(C)CCc2c(sc3ncnc(N)c23)C1`, the IC50 on LIM domain kinase 1 [2] and on LIM domain kinase 1 [1] was 2.8 µM each time. In turn, `NC(=O)c1sc2ccccc2c1N` returned a 50% inhibitory concentration (IC50) on LIM domain kinase 1 [1] of 33 µM. On to `Nc1ncnc2sc3c(c12)CCCC3`, for which the IC50 against LIM domain kinase 1 [2] and on LIM domain kinase 1 [1] was 4 µM each time. In the case of `Nc1ncnc2sc3c(c12)CCC(C(=O)O)C3` (stereo not given), the IC50 on LIM domain kinase 1 [2] and against LIM domain kinase 1 [1] was over 20 µM each time. Turning to `OCCNc1ncnc2sc3c(c12)CCCC3`, the half-maximal inhibitory concentration (IC50) on LIM domain kinase 1 [2] and against LIM domain kinase 1 [1] was over 100 µM each time. In the case of `Nc1ncnc2c1sc1ccccc12`, on LIM domain kinase 1 [1], the IC50 was found to be 7 µM.

As for `CNc1ncnc2sc3c(c12)CCCC3`, the IC50 against LIM domain kinase 1 [2] and against LIM domain kinase 1 [1] was over 100 µM in each case. With `Nc1nc(-c2ccccc2)nc2sc3c(c12)CCCC3`, the IC50 on LIM domain kinase 1 [2] and against LIM domain kinase 1 [1] was over 100 µM throughout. For the compound `CC1CCc2c(sc3ncnc(N)c23)C1` (stereo not given), the IC50 against LIM domain kinase 1 [2] and against LIM domain kinase 1 [1] was 18 µM each time. Take `Cn1c2ccccc2c2ncnc(N)c21`: it took 4 µM to reach half-maximal inhibition against LIM domain kinase 1 [1] (IC50). In the case of `CCOC(=O)C1CCc2c(sc3ncnc(N)c23)C1` (stereo not given), the IC50 at LIM domain kinase 1 [2] and at LIM domain kinase 1 [1] was 2.3 µM throughout.

As for `Nc1ncnc2sc3c(c12)CCC3`, the IC50 on LIM domain kinase 1 [2] and at LIM domain kinase 1 [1] was 5.3 µM throughout.

As to `CC1(C)Cc2c(sc3ncnc(N)c23)CO1`, the IC50 against LIM domain kinase 1 [2] and against LIM domain kinase 1 [1] was 12.7 µM each time.

Compound `NC(=O)c1sc2ncccc2c1N` showed an IC50 against LIM domain kinase 1 [1] of 37 µM. For `CC(Nc1ncnc2sc3c(c12)CCCC3)c1ccccc1` (stereo not given), the IC50 on LIM domain kinase 1 [2] and on LIM domain kinase 1 [1] was over 100 µM throughout. Turning to `c1nc(N2CCCCC2)c2c3c(sc2n1)CCCC3`, the half-maximal inhibitory concentration (IC50) on LIM domain kinase 1 [2] and against LIM domain kinase 1 [1] was over 100 µM in each case. In the case of `CSc1nc(N)c2c3c(sc2n1)CCC3`, the IC50 against LIM domain kinase 1 [2] and against LIM domain kinase 1 [1] was over 100 µM throughout. With `NCCNc1ncnc2sc3c(c12)CCCC3`, the IC50 against LIM domain kinase 1 [2] and at LIM domain kinase 1 [1] was over 100 µM in each case.
